Measured values: ChEMBL document CHEMBL4000192, “Identification and optimization of a novel series of indoleamine 2,3-dioxygenase inhibitors” (Bioorg Med Chem Lett, 2017)
Blank lines part the entries; values can stand above or below the molecule they belong to.

Tests used:
HeLa = assay: Cytotoxic activity against human HeLa cells by […]; format: cell-based
[1] = target: T1, Indoleamine 2,3-dioxygenase 1 (Homo sapiens, UniProt P14902); assay: Inhibition of IDO1 in IFN-gamma stimulated human HeLa cells assessed as inhibition of kynurenine production preincubated with cells followed by IFN-gamma addition measured after 20 hrs; format: cell-based
Target sequence in this assay (P14902 whole entry): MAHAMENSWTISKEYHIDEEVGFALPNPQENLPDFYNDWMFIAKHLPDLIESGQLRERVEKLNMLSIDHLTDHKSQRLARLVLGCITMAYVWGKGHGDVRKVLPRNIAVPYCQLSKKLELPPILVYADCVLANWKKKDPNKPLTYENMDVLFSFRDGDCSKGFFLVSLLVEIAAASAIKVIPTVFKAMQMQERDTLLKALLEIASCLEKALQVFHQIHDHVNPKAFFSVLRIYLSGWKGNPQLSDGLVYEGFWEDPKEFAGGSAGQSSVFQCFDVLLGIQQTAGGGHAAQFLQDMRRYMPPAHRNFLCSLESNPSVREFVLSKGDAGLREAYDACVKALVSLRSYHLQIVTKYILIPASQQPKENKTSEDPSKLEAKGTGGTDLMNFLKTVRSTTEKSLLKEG

[2] = Metabolic stability in rat liver microsomes assessed as parent compound remaining at 0.5 uM after 10 mins; format: ADME, microsome; conditions: read-out: Stability
[3] = Metabolic stability in human liver microsomes assessed as parent compound remaining at 0.5 uM after 10 mins; format: ADME, microsome; conditions: read-out: Stability
[4] = Metabolic stability in mouse liver microsomes assessed as parent compound remaining at 0.5 uM after 10 mins; format: ADME, microsome; conditions: read-out: Stability
Cytochrome P450 2C9 = Cytochrome P450 2C9 (Homo sapiens, UniProt P11712); assay: Inhibition of CYP2C9 (unknown origin); format: ADME
Cytochrome P450 2C9, sequence (P11712 whole entry): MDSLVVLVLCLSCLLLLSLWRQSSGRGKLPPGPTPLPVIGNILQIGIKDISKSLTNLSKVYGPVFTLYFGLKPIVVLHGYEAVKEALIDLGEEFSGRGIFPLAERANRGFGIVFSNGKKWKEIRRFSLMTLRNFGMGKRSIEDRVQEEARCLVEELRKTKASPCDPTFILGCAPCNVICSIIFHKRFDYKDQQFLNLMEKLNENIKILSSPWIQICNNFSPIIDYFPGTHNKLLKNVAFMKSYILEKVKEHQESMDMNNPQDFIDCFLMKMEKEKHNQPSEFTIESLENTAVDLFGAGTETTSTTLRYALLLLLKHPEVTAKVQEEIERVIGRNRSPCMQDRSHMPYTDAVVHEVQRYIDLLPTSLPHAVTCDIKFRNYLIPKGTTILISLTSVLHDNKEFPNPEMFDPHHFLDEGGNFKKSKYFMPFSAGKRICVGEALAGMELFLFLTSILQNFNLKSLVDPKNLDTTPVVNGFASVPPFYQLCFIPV

Cytochrome P450 2B6 = target: T2, Cytochrome P450 2B6 (Homo sapiens, UniProt P20813); assay: Inhibition of CYP2B6 (unknown origin); format: ADME
T2 sequence (P20813 whole entry): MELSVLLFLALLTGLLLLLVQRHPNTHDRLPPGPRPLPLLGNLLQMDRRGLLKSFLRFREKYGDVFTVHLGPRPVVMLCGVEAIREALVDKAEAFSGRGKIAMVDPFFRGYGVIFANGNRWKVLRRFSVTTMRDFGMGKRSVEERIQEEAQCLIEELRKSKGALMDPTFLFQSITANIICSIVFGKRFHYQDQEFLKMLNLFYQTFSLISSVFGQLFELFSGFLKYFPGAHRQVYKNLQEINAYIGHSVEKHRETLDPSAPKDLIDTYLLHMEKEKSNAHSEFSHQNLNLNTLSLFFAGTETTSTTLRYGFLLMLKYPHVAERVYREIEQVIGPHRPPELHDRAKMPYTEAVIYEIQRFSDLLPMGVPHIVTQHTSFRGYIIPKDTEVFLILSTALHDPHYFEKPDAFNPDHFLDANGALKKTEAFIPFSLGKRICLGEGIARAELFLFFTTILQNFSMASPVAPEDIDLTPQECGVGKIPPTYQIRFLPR

Cytochrome P450 2D6 = Cytochrome P450 2D6 (Homo sapiens, UniProt P10635); assay: Inhibition of CYP2D6 (unknown origin); format: ADME
Cytochrome P450 2D6, sequence (P10635 whole entry): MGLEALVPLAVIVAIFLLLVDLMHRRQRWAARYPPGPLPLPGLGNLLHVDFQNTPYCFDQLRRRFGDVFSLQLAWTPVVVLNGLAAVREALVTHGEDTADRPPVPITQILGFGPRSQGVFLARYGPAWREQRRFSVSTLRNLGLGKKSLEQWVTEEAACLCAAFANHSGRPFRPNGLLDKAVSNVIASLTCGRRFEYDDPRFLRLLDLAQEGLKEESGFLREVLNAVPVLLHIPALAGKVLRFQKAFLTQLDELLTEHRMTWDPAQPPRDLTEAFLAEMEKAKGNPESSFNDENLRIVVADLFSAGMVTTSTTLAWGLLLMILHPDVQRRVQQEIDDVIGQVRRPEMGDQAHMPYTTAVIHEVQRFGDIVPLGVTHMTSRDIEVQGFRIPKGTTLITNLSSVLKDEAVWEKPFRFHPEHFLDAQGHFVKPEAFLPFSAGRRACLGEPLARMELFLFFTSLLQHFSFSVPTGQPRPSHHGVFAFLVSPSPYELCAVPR

Cytochrome P450 3A4 [5] = target: T3, Cytochrome P450 3A4 (Homo sapiens, UniProt P08684); assay: Inhibition of CYP3A4 (unknown origin) using BZR as substrate; format: ADME
T3 sequence (P08684 whole entry): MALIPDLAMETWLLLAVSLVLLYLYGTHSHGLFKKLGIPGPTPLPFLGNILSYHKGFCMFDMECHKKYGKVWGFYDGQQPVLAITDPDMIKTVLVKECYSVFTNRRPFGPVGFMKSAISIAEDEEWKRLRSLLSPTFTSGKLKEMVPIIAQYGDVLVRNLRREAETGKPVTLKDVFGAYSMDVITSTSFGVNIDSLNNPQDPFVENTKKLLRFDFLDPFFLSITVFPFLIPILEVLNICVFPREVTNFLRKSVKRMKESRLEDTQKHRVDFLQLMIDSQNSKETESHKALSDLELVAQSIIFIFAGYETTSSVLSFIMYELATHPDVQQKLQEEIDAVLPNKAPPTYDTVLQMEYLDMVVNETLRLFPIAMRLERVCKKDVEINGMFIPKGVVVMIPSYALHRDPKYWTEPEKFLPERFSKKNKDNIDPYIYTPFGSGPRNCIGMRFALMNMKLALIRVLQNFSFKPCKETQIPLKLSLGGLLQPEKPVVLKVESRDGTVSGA

Cytochrome P450 2C19 = Cytochrome P450 2C19 (Homo sapiens, UniProt P33261); assay: Inhibition of CYP2C19 (unknown origin); format: ADME
Cytochrome P450 2C19, sequence (P33261 whole entry): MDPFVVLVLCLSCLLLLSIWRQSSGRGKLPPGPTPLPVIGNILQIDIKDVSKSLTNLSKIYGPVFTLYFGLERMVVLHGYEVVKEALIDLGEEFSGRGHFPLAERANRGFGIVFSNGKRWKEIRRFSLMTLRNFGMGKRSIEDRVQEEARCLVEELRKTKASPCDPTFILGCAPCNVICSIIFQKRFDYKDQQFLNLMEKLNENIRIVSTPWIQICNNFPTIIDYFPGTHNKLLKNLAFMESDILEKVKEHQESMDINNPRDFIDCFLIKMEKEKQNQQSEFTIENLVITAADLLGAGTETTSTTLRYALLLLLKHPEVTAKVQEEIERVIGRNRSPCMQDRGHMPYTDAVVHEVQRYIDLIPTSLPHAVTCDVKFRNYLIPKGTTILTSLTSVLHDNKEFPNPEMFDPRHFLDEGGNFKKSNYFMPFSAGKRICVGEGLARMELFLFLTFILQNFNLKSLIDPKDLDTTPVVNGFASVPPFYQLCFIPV

Cytochrome P450 1A2 = target: T4, Cytochrome P450 1A2 (Homo sapiens, UniProt P05177); assay: Inhibition of CYP1A2 (unknown origin); format: ADME
T4 sequence (P05177 whole entry): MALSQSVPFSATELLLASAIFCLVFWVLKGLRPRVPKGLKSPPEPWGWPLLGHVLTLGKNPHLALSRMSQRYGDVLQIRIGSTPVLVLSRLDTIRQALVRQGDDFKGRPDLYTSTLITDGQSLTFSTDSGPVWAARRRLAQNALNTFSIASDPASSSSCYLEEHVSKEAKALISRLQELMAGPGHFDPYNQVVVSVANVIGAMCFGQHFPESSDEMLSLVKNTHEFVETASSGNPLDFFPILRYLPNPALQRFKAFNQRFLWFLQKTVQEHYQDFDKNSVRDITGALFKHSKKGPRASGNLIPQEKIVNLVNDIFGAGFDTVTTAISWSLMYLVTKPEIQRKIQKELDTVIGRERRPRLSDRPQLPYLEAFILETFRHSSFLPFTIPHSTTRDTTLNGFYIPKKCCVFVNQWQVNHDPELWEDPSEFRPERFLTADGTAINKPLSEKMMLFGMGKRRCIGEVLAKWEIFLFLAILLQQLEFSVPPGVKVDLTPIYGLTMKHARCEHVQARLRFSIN

Cytochrome P450 3A4 [6] = target: T3, Cytochrome P450 3A4; assay: Inhibition of CYP3A4 (unknown origin) using BFC as substrate; format: ADME
Cytochrome P450 2C8 = target: T5, Cytochrome P450 2C8 (Homo sapiens, UniProt P10632); assay: Inhibition of CYP2C8 (unknown origin); format: ADME
T5 sequence (P10632 whole entry): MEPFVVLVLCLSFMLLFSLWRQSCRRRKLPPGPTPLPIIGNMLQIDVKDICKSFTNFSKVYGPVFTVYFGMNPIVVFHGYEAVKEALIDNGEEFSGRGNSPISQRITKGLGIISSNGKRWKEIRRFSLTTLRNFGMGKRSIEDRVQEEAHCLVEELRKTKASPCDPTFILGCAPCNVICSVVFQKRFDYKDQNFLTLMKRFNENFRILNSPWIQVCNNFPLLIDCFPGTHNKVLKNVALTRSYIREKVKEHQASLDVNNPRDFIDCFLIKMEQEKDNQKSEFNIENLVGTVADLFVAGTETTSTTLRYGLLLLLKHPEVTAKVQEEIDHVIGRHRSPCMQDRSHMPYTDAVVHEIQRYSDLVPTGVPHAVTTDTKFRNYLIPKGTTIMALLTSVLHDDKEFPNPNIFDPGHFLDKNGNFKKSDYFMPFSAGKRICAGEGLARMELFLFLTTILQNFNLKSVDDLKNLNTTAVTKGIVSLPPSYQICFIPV

[7] = target: T1, Indoleamine 2,3-dioxygenase 1; assay: Inhibition of IDO1 (unknown origin) at 25 uM using tryptophan as substrate preincubated for 15 mins followed by substrate addition by high-throughput screening assay relative to control
Target sequence in this assay (P14902 whole entry, looked up): as the sequence (P14902 whole entry) above

[8] = target: T1, Indoleamine 2,3-dioxygenase 1; assay: Inhibition of IDO1 (unknown origin) using tryptophan as substrate preincubated for 15 mins followed by substrate addition by high-throughput screening assay
Target sequence in this assay (P14902 whole entry): as above

remaining at 10 min, 0.5 µM [2]: 95% | remaining at 10 min, 0.5 µM [3]: 100% | IC50 [1]: 0.1 µM | remaining at 10 min, 0.5 µM [4]: 69%
SMILES: COc1ccc(-c2ccc(Oc3cccc4c3CCCC4)c(NC(=O)Nc3ccc(C)cc3)c2)cc1C(=O)O
IC50 (HeLa): > 30 µM

IC50 (Cytochrome P450 2C9): > 3 µM | IC50 (Cytochrome P450 2B6): > 3 µM | IC50 (Cytochrome P450 2D6): > 3 µM | remaining at 10 min, 0.5 µM [2]: 65% | remaining at 10 min, 0.5 µM [3]: 41% | IC50 (Cytochrome P450 3A4 [5]): > 3 µM | IC50 (Cytochrome P450 2C19): > 3 µM | IC50 (Cytochrome P450 1A2): > 3 µM | IC50 (Cytochrome P450 3A4 [6]): > 3 µM | IC50 [1]: 0.049 µM | remaining at 10 min, 0.5 µM [4]: 70% | IC50 (Cytochrome P450 2C8): > 3 µM
SMILES: COc1ccc(-c2ccc(Oc3cccc4c3CCCC4)c(NC(=O)Nc3ccccc3C)c2)cc1C(=O)O
IC50 (HeLa): > 30 µM

IC50 (Cytochrome P450 2C9): > 3 µM | IC50 (Cytochrome P450 2B6): > 3 µM | IC50 (Cytochrome P450 2D6): > 3 µM | remaining at 10 min, 0.5 µM [2]: 71% | remaining at 10 min, 0.5 µM [3]: 84% | IC50 (Cytochrome P450 3A4 [5]): > 3 µM | IC50 (Cytochrome P450 2C19): > 3 µM | IC50 (Cytochrome P450 1A2): > 3 µM | IC50 (Cytochrome P450 3A4 [6]): > 3 µM | remaining at 10 min, 0.5 µM [4]: 86% | IC50 (Cytochrome P450 2C8): > 3 µM
SMILES: COc1ccc(-c2ccc(Oc3cccc4c3CCCC4)c(NC(=O)Nc3cccc(C)c3)c2)cc1C(=O)O
IC50 (HeLa): > 30 µM

remaining at 10 min, 0.5 µM [2]: 92% | remaining at 10 min, 0.5 µM [3]: 80% | IC50 [1]: 0.062 µM | remaining at 10 min, 0.5 µM [4]: 96%
SMILES: COc1ccc(-c2ccc(Oc3cccc4c3CCCC4)c(NC(=O)Nc3ccccc3)c2)cc1C(=O)O
IC50 (HeLa): > 10 µM

IC50 [1]: 0.34 µM
SMILES: COc1ccc(-c2ccc(Oc3ccccc3C(C)C)c(NC(=O)Nc3ccc(C)cc3)c2)cc1C(=O)O
IC50 (HeLa): > 30 µM

IC50 [1]: 2.4 µM
SMILES: COc1ccc(-c2ccc(Oc3ccccc3C(C)(C)CO)c(NC(=O)Nc3ccc(C)cc3)c2)cc1C(=O)O
IC50 (HeLa): > 30 µM

IC50 (Cytochrome P450 2C9): > 3 µM | IC50 (Cytochrome P450 2B6): > 3 µM | IC50 (Cytochrome P450 2D6): > 3 µM | remaining at 10 min, 0.5 µM [2]: 83% | remaining at 10 min, 0.5 µM [3]: 74% | IC50 (Cytochrome P450 3A4 [5]): > 3 µM | IC50 (Cytochrome P450 2C19): > 3 µM | IC50 (Cytochrome P450 1A2): > 3 µM | IC50 (Cytochrome P450 3A4 [6]): > 3 µM | IC50 [1]: 0.022 µM | remaining at 10 min, 0.5 µM [4]: 74% | IC50 (Cytochrome P450 2C8): > 3 µM
SMILES: COc1ccc(-c2ccc(Oc3cccc4c3CCCC4)c(NC(=O)Nc3ccccc3Cl)c2)cc1C(=O)O
IC50 (HeLa): > 30 µM

remaining at 10 min, 0.5 µM [2]: 72% | remaining at 10 min, 0.5 µM [3]: 95% | remaining at 10 min, 0.5 µM [4]: 77%
SMILES: COc1ccc(-c2ccc(Oc3cccc4c3CCCC4)c(NC(=O)Nc3ccccc3F)c2)cc1C(=O)O
IC50 (HeLa): > 10 µM

IC50 [1]: 0.35 µM
SMILES: COc1ccc(-c2ccc(Oc3ccccc3C(C)(C)C)c(NC(=O)Nc3ccc(C)cc3)c2)cc1C(=O)O
IC50 (HeLa): > 30 µM

IC50 [1]: 6 µM
SMILES: COc1ccc(-c2ccc(Oc3ccccc3C#N)c(NC(=O)Nc3ccc(C)cc3)c2)cc1C(=O)O
IC50 (HeLa): > 30 µM

More lines, now with the values behind:

SMILES: Cc1ccc(NC(=O)Nc2cc(-c3cccc(C(=O)O)c3F)ccc2Oc2ccccc2C(C)(C)C)cc1
IC50 (HeLa): > 30 µM | IC50 [1]: 4.5 µM

SMILES: C#CCOc1cccc(Oc2ccc(-c3ccc(OC)c(C(=O)O)c3)cc2NC(=O)Nc2ccc(C)cc2)c1C
IC50 (HeLa): > 30 µM

SMILES: Cc1ccc(NC(=O)Nc2cc(-c3ccc(Cl)c(C(=O)O)c3)ccc2Oc2ccccc2C(C)(C)C)cc1
IC50 (HeLa): > 30 µM

SMILES: CCOc1ccc(-c2ccc(Oc3ccccc3C(C)(C)C)c(NC(=O)Nc3ccc(C)cc3)c2)cc1C(=O)O
IC50 (HeLa): > 30 µM

SMILES: Cc1ccc(NC(=O)Nc2cc(-c3cccc(C(=O)O)c3)ccc2Oc2ccccc2C(C)(C)C)cc1
IC50 (HeLa): > 30 µM

SMILES: COc1ccccc1Oc1ccc(-c2ccc(OC)c(C(=O)O)c2)cc1NC(=O)Nc1ccc(C)cc1
IC50 (HeLa): > 30 µM

SMILES: CCCc1ccccc1Oc1ccc(-c2ccc(OC)c(C(=O)O)c2)cc1NC(=O)Nc1ccc(C)cc1
IC50 (HeLa): > 30 µM

SMILES: COc1ccc(-c2ccc(Oc3cccc4c3CCC4)c(NC(=O)Nc3ccc(C)cc3)c2)cc1C(=O)O
IC50 (HeLa): > 30 µM

SMILES: Cc1ccc(NC(=O)Nc2cc(-c3cc(Cl)cc(C(=O)O)c3)ccc2Oc2ccccc2C(C)(C)C)cc1
IC50 (HeLa): > 30 µM | IC50 [1]: 0.25 µM

SMILES: COc1ccc(-c2ccc(Oc3ccccc3Cl)c(NC(=O)Nc3ccc(C)cc3)c2)cc1C(=O)O
IC50 (HeLa): > 30 µM

SMILES: CC(C)(C)c1ccccc1Oc1ccc(-c2cccc(C(=O)O)c2)cc1NC(=O)Nc1ccc(Br)cc1
IC50 (HeLa): > 30 µM

SMILES: COc1ccc(-c2ccc(Oc3cccc(C(C)(C)C)c3)c(NC(=O)Nc3ccc(C)cc3)c2)cc1C(=O)O
IC50 (HeLa): > 30 µM

SMILES: CC(C)(C)c1ccccc1Oc1ccc(-c2cccc(C(=O)O)c2)cc1NC(=O)Nc1ccc(Cl)cc1
IC50 (HeLa): > 30 µM

SMILES: COc1ccc(NC(=O)Nc2cc(-c3cccc(C(=O)O)c3)ccc2Oc2ccccc2C(C)(C)C)cc1
IC50 (HeLa): > 30 µM

SMILES: COc1ccc(-c2ccc(Oc3cccc(C)c3C)c(NC(=O)Nc3ccc(C)cc3)c2)cc1C(=O)O
IC50 (HeLa): > 30 µM

SMILES: CC(C)(C)c1ccccc1Oc1ccc(-c2cccc(C(=O)O)c2)cc1NC(=O)Nc1ccc(OC(F)(F)F)cc1
IC50 (HeLa): 22 µM | IC50 (Cytochrome P450 2C9): 2.5 µM | IC50 (Cytochrome P450 2B6): > 5 µM | IC50 (Cytochrome P450 2D6): > 5 µM | IC50 (Cytochrome P450 3A4 [5]): > 5 µM | IC50 (Cytochrome P450 2C19): > 5 µM | IC50 (Cytochrome P450 1A2): > 5 µM | IC50 (Cytochrome P450 3A4 [6]): > 5 µM | inhibition [7]: > 75% | IC50 [1]: 4 µM | IC50 (Cytochrome P450 2C8): > 5 µM | IC50 [8]: 0.087 µM

SMILES: Cc1cccc(NC(=O)Nc2cc(-c3cccc(C(=O)O)c3)ccc2Oc2ccccc2C(C)(C)C)c1
IC50 (HeLa): > 30 µM

SMILES: CC(C)(C)c1ccccc1Oc1ccc(-c2cccc(C(=O)O)c2)cc1NC(=O)Nc1ccc(OC(F)F)cc1
IC50 (HeLa): > 30 µM | IC50 [1]: 2.6 µM

SMILES: CCc1ccccc1Oc1ccc(-c2ccc(OC)c(C(=O)O)c2)cc1NC(=O)Nc1ccc(C)cc1
IC50 (HeLa): > 30 µM

SMILES: COc1ccc(-c2ccc(Oc3ccccc3C)c(NC(=O)Nc3ccc(C)cc3)c2)cc1C(=O)O
IC50 (HeLa): > 30 µM

SMILES: Cc1ccccc1NC(=O)Nc1cc(-c2cccc(C(=O)O)c2)ccc1Oc1ccccc1C(C)(C)C
IC50 (HeLa): > 30 µM | IC50 [1]: 1 µM

SMILES: CC(C)(C)c1ccccc1Oc1ccc(-c2cccc(C(=O)O)c2)cc1NC(=O)Nc1ccccc1
IC50 (HeLa): > 30 µM | IC50 [1]: 1.5 µM
